Square brackets hold non-standard residues; d marks the D form. Ends that are not written are not given here.
How the values were obtained:
[1] = tested on: TLR4; experiment: LPS-induced TNFα in primary human PBMC, ELISA; assay type: cell-based; settings: 6 h; for inhibition of LPS-induced hTNFα production: peptide 1, 5 or 25 μM 1 h before 10 ng/ml LPS; for inhibitory potential compared to parental A464 (alanine scan): peptide 5 μM, 10 ng/ml LPS
Description: FIGS. 13A and B are bar charts showing the effect of A467 and A464 on LPS-induced TNFα production and on cell viability in primary human cells. Peripheral blood mononuclear cells (PBMCs) were seeded in 96 well plates (1 ×10^6 cells/ml) 24 hours before treatment. A467 (SEQ ID NO. 23) and A464 (SEQ ID NO. 20) were added to the cells at 1, 5 and 25 μM 1 hour before stimulating with 10 ng/ml LPS. The peptides were added into the unstimulated control wells at 25 μM. Supernatants were collected 6 hours after stimulation and assayed for TNFα production by ELISA (A). The cells were assayed for viability by the MTT assay (B). No peptides were added to the control wells (black bars). Data is representative of at least three experiments each performed in triplicate and is expressed as mean±s.d;
(§1) FIGS. 14A and B are bar charts showing the comparison of the inhibitory effect of the L- and D-forms of A464 on LPS-induced TNFα in primary human and murine cells. PBMC (1×10^6 cells/ml, (A)) or immortalised murine macrophages (1.5×10^5 cells/ml, (B)) were seeded in 96 well plates 24 hours before treatment. L-form and D-form A464 peptides (with the 9R delivery peptide on the C-terminus, SEQ ID NO. 20) were added to the cells at a concentration of 1, 5 or 25 μM 1 hour before stimulating with 10 ng/ml LPS. Supernatants were collected 6 hours after stimulation and assayed for either human (A) or murine (B) TNFα production by ELISA. No peptides were added to the control wells (black bars). Data is representative of at least three experiments each performed in triplicate and is expressed as mean±s.d;
(§2) FIGS. 15A and B are bar charts showing the effect of the D-form A464 peptide with the TAT delivery sequence on LPS induced TNFα in primary human and murine cells. PBMC (A) and immortalised murine macrophages (B) were seeded in 96 well plates 24 hours before treatment. D-form of A467 (SEQ ID NO. 37) and A464 (SEQ ID NO. 36) with the TAT delivery sequence were added to the cells at a concentration of 1, 5 or 25 μM 1 hour before stimulating with 10 ng/ml LPS. The peptides were added into the unstimulated control wells at 25 μM. Supernatants were collected 6 hours after stimulation and assayed for either human (A) or murine (B) TNFα production by ELISA. No peptides were added to the control wells (black bars). Data is representative of at least three experiments each performed in triplicate and is expressed as mean±s.d;
(§3) FIGS. 16A and B are bar charts showing the effect of attaching 9R to the N-terminus of A464 on LPS-induced TNFα in primary human and murine cells. Immortalised murine macrophages (A) and PBMC (B) were seeded in 96 well plates 24 hours before treatment. L-form of A467 (SEQ ID NO. 39) and A464 (SEQ ID NO. 38) with the 9R-delivery sequence at the N-terminus were added to the cells at a concentration of 1, 5 or 25 μM 1 hour before stimulating with 10 ng/ml LPS. The peptides were added into the unstimulated control wells at […]. Supernatants were collected 6 hours after stimulation and assayed for either murine (A) or human (B) TNFα production by ELISA. No peptides were added to the control wells (black bars). Data is representative of at least three experiments each performed in triplicate and is expressed as mean±s.d;
FIGS. 17A and B are bar charts showing the effect of the D-form A464 with 9R at the N-terminus on LPS-induced TNFα in primary human and murine cells. Immortalised murine macrophages (A) and PBMC (B) were seeded in 96 well plates 24 hours before treatment. D-form of A467 (SEQ ID NO. 39) and A464 (SEQ ID NO. 38) peptides with the 9R-delivery sequence at N-terminus were added to the cells at a concentration of 1, 5 or 25 μM 1 hour before stimulating with 10 ng/ml LPS. The peptides were added into the unstimulated control wells at 25 μM. Supernatants were collected 6 hours after stimulation and assayed for either murine (A) or human (B) TNFα production by ELISA. No peptides were added to the control wells (black bars). […]

[2] = biological target: T1, TLR4 (Mus musculus, UniProt Q9QUK6); experiment: LPS-induced TNFα in immortalised murine macrophages, ELISA; assay type: cell-based; design: endogenous in cells; immortalised murine bone-marrow-derived macrophages; settings: 6 h; for inhibition of LPS-induced mTNFα production: peptide 1, 5 or 25 μM 1 h before 10 ng/ml LPS
T1 sequence (Q9QUK6 26-835): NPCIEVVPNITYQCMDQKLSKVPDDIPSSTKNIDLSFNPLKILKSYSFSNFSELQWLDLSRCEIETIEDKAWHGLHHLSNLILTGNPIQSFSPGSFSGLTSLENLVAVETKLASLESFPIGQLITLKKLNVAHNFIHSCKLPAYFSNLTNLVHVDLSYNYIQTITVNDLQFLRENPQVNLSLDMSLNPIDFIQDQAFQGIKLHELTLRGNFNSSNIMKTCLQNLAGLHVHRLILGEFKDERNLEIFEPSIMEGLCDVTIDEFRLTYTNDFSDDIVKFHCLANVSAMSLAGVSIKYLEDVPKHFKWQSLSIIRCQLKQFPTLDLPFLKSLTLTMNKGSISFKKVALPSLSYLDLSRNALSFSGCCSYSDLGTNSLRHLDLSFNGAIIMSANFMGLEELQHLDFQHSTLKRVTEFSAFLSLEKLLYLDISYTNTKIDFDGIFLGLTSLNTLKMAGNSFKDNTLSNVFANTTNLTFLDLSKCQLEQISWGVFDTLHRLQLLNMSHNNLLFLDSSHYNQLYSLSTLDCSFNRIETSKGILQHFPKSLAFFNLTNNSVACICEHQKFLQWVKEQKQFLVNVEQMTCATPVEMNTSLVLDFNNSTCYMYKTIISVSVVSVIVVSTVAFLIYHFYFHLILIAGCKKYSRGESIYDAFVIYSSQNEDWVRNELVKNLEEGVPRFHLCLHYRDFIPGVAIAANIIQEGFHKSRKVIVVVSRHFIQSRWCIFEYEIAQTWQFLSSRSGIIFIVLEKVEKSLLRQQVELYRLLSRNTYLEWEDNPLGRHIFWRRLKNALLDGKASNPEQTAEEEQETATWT
T1 sequence (Q9JHF9 19-160 partner): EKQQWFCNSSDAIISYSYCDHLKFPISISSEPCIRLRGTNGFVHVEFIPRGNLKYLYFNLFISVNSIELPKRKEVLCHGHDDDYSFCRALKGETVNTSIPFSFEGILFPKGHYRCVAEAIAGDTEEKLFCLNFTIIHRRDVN
Description: as §1, §2, §3
FIGS. 17A and B are bar charts showing the effect of the D-form A464 with 9R at the N-terminus on LPS-induced TNFα in primary human and murine cells. Immortalised murine macrophages (A) and PBMC (B) were seeded in 96 well plates 24 hours before treatment. D-form of A467 (SEQ ID NO. 39) and A464 (SEQ ID NO. 38) peptides with the 9R-delivery sequence at N-terminus were added to the cells at a concentration of 1, 5 or 25 μM 1 hour before stimulating with 10 ng/ml LPS. The peptides were added into the unstimulated control wells at 25 μM. Supernatants were collected 6 hours after stimulation and assayed for either murine (A) or human (B) TNFα production by ELISA. No peptides were added to the control wells (black bars). Data is representative of at least three experiments each performed in triplicate and is expressed as mean±s.d;
FIGS. 18A and B are bar charts showing the effect of shortened A464 peptides with deletions of N- and C-terminal amino acids on LPS-induced TNFα in murine macrophages. Immortalised murine macrophages were seeded in 96 well plates (1.5×10^5 cells/ml) 24 hours before treatment. A464 peptides with a deletion of one (N-1) (SEQ ID NO. 40) or two (N-2) (SEQ ID NO. 41) amino acids from the N-terminus (A), or three (C-3) (SEQ ID NO. 42) or six (C-6) (SEQ ID NO. 43) amino acids from the C-terminus (B), were added to the cells at a concentration of 1, 5 or 25 μM 1 hour before stimulating with 10 ng/ml LPS. Peptides were added to the control wells at 25 μM. […]

[3] = tested on: cell viability; experiment: MTT cell viability assay, more detailed investigation of screening hits; assay type: cell-based; settings: cell type not stated
Description: Cell viability was measured by assessing mitochondrial function using an MTT (3-(4,5-Dimethylthiazol-2-yl)-2,5-diphenyltetrazolium bromide) assay. Cells were seeded into 96 well plates and treated with peptides and agonists as described above in relation to the Figs. Wells containing medium only served as a blank control. To terminate treatment of cells, medium was removed and the cells were washed once with PBS. 200 μl per well of 1 mg/ml MTT in PBS was added directly to the cells and the plates were incubated at 37° C. for 14-16 hrs in the dark. MTT was then removed and 200 μl per well of dimethyl sulphoxide (DMSO) was added and cells incubated for 20 min at 37° C. in the dark, prior to absorbance being read at 595 nm on a spectrophotometer.

[4] = biological target: T1, TLR4; experiment: LPS-induced TNFα in RAW264.7 cells, ELISA; assay type: cell-based, murine; design: endogenous in cells; host or cells: RAW264.7; immortalised murine bone-marrow-derived macrophages; settings: peptide 5 or 25 μM 1 h before 10 ng/ml LPS, 6 h, A464 5 μM as positive control
Description: FIGS. 5A and B are bar charts showing the dose-dependent inhibitory effect of A464R on LPS-induced TNFα in murine RAW264.7 cells. A464 (SEQ ID NO. 20) was added to the cells at a concentration of 5, 20 or 50 μM 1 hour before stimulating with 100 ng/ml LPS. Supernatant was collected 24 hours after stimulation and assayed for TNFα by ELISA (A) and cells were assayed for viability by the MTT assay (B.). No peptides were added to the control wells (black bars). Data is representative of at least three experiments each performed in triplicate and is expressed as mean±s.d;
FIGS. 6A and B are bar charts showing the effect of peptides derived from A46 on LPS-induced TNFα in murine RAW264.7 cells. A46 peptides were added to the cells at a concentration of 1 or 5 μM 1 hour before stimulating with 10 ng/ml LPS. Supernatants were collected 6 hours after stimulation and assayed for TNFα by ELISA. No peptides were added into the control wells (black bars). (A) peptides A461-A467 (SEQ ID NO. 17 to 23). (B) peptides A468-A4614 (SEQ ID NO. 24 to 30) (excluding A4610 SEQ ID NO. 26 and A4612 SEQ ID NO. 28). Data is representative of at least two experiments each performed in triplicate and is expressed as mean±s.d;
FIGS. 22 A and B are bar charts showing the effect of short A467 and A464 peptides, with 9R on either N- or C-terminus, on LPS- induced TNFα production in murine RAW264.7 cells. Cells were seeded in 96 well plates (1.5×10^5 cells/ml) 24 hours before treatment. Short A467 and short A464 peptides with the 9R delivery sequence on either the C-terminus (sA464C9R) (SEQ ID NO. 56) (A) or the N-terminus (sA464N9R) (SEQ ID NO. 57) (B) were added to the cells at a concentration of 5 or 25 μM 1 hour before stimulating with 10 ng/ml LPS. Normal full length A467 (SEQ ID NO. 23) and A464 (SEQ ID NO. 20) peptides were added at a concentration of 5 μM as positive controls. Supernatants were collected 6 hours after stimulation with the agonist and assayed for TNFα, by ELISA. No peptides were added to the control wells (black bars). Data is representative of at least three experiments each performed in triplicate and is expressed as mean±s.d;
Cytokine and chemokine production from cells or mouse serum was measured by ELISA using Duoset kits from R&D systems, according to the manufacturer's instructions.

D-A464-TAT ([dK][dY][dS][dF][dK][dL][dI][dL][dA][dE][dY][dY]G[dR][dK][dK][dR][dR][dQ][dR][dR][dR])
inhibition of LPS-induced hTNFα production [1]: failed to inhibit LPS-induced hTNFα production at 1-25 μM
inhibition of LPS-induced mTNFα production [2]: still inhibited, but only at 5-25 μM

DFVNFVKDMICRRRRRRRRR [Peptide A4610]
cell viability (MTT assay) [3]: reduced cell viability

DSGLFDFVNFVRRRRRRRRR [Peptide A469]
cell viability (MTT assay) [3]: reduced cell viability

KYSAKLILAEY-9R (KYSAKLILAEYRRRRRRRRR) [Peptide F4A]
inhibitory potential compared to parental A464 (alanine scan) [1]: reduced inhibitory potential

KYSFALILAEY-9R (KYSFALILAEYRRRRRRRRR) [Peptide K5A]
inhibitory potential compared to parental A464 (alanine scan) [1]: reduced inhibitory potential

KYSFK-9R [Peptide A464C-6]
inhibition of LPS-induced mTNFα production [2]: lost its ability to inhibit LPS-induced TNFα production

KYSFKAILAEY-9R (KYSFKAILAEYRRRRRRRRR) [Peptide L6A]
inhibitory potential compared to parental A464 (alanine scan) [1]: reduced inhibitory potential
inhibition compared to A464 (alanine scan) ([2]; peptide 5 μM, 10 ng/ml LPS): reduced inhibition

KYSFKLALAEY-9R (KYSFKLALAEYRRRRRRRRR) [Peptide I7A]
inhibitory potential compared to parental A464 (alanine scan) [1]: reduced inhibitory potential

KYSFKLILAEYRRRRRRRRR [D-A464]
inhibition of LPS-induced hTNFα production [1]: only blocked TNFα secretion at 25 μM
inhibition of LPS-induced mTNFα production [2]: complete inhibition at 1

TYLYNKYSFKLRRRRRRRRR [Peptide A463]
cell viability (MTT assay) [3]: reduced cell viability

sA464C9R (SFKLILRRRRRRRRR)
inhibition of LPS-induced TNFα by short peptides [4]: only when the delivery sequence was at the N-terminus

sA464N9R (RRRRRRRRRSFKLIL)
inhibition of LPS-induced TNFα by short peptides [4]: inhibited LPS-induced TNFα production as potently as A464 (SEQ ID No. 20) at 5 μM
